The target of the first experiment is PDE10 (UniProt Q9Y233). The experiment in a line: PDE10 enzyme inhibition, IMAP TR-FRET assay (MPDE10A7 Enzyme Activity and Inhibition). The format is biochemical. Particulars: IC50 class against PDE10; read-out: IC50. The essentials: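 IMAP TR-FRET read-out of PDE10 hydrolysis of fluorescein-cAMP or -cGMP (60 min, room temperature), after a 30 min compound-enzyme preincubation. Enzyme source was PDE10A or tissue homogenate. Averaged IC50s are reported as five range classes.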
Background: TR-FRET usually uses a lanthanide donor and a delayed reading to cut background.
A word on the IC50: it is the concentration at which inhibition is half-maximal. In the case of `Cc1cc(-c2nccnc2Oc2ccc(Nc3nc4ccccc4s3)cc2)ccn1` [Example 135, N-(4-(3-(2-methylpyridin-4-yl)pyrazin-2-yloxy)phenyl)benzo[d]thiazol-2-amine], the IC50 is less than 25 nM.
On the same count and under the same terms, the result for `Fc1cc(Oc2nccnc2C2CCOCC2)ccc1Nc1nc2ccccc2s1` [Example 215, N-(2-fluoro-4-(3-(terahydro-2H-pyran-4-yl)pyrazin-2-yloxy)phenyl)benzo[d]thiazol-2-amine] reads less than 25 nM.
With `COc1ccc(-c2nccnc2Oc2ccc(C(=O)c3nc4ccccc4[nH]3)cc2)c(OC)n1` [Example 111, (1H-benzo[d]imidazol-2-yl)(4-(3-(2,6-dimethoxypyridin-3-yl)pyrazin-2-yloxy)phenyl)methanone], the IC50 lay in the range of 25 to 100 nM.
On the same count and under the same terms, to `c1ccc2sc(Nc3ccc(Oc4nccnc4-c4cccc5ncccc45)cc3)nc2c1` [Example 147, N-(4-(3-(quinolin-5-yl)pyrazin-2-yloxy)phenyl)benzo[d]thiazol-2-amine] belongs 25 to 100 nM; to `FCCN1CCC(c2nccnc2Oc2ccc(Nc3nc4ccccc4s3)cc2)CC1` [Example 236, N-(4-(3-(1-(2-fluoroethyl)piperidin-4-yl)pyrazin-2-yloxy)phenyl)benzo [d]thiazol-2-amine], less than 25 nM.
On the same count and under the same terms, to `COc1ccc(-c2nccnc2Oc2ccc(C(=O)c3nc4ccccc4[nH]3)cc2)cn1` [Example 121, (1H-benzo[d]imidazol-2-yl)(4-(3-(6-methoxypyridin-3-yl)pyrazin-2-yloxy)phenyl)methanone] belongs less than 25 nM; to `O=C(c1ccc(Oc2nccnc2Oc2cccnc2)cc1)c1nc2ccccc2[nH]1` [Example 168, (1H-benzo[d]imidazol-2-yl)(4-(3-(pyridin-3-yloxy)pyrazin-2-yloxy)phenyl)methanone], 100 to 250 nM; to “1H-BENZIMIDAZOL-2-YL(4-((3-(CIS-4-HYDROXYCYCLOHEXYL)-2-PYRAZINYL)OXY)PHENYL)METHANONE AND 1H-BENZIMIDAZOL-2-YL(4-((3-(TRANS-4-HYDROXYCYCLOHEXYL)-2-PYRAZINYL)OXY)PHENYL)METHANONE [Example 188]”, less than 25 nM.
On the same count and under the same terms, the result for `Fc1ccc2[nH]c(Nc3ccc(Oc4nccnc4N4CCOCC4)cc3)nc2c1` [Example 64, 5-fluoro-N-(4-(3-morpholinopyrazin-2-yloxy)phenyl)-1H-benzo[d]imidazol-2-amine] reads 25 to 100 nM.
With `Fc1ccc2sc(Nc3ccc(Oc4nccnc4C4CCOCC4)cc3)nc2c1` [Example 218, 5-fluoro-N-(4-(3-(tetrahydro-2H-pyran-4-yl)pyrazin-2-yloxy)phenyl)benzo[d]thiazol-2-amine], the IC50 was less than 25 nM.
Still for that read-out and setting: the result for `CC(C)(C)OC(=O)N1CC=C(c2nccnc2Oc2ccc(Nc3nc4ccccc4s3)c(F)c2)CC1` [Example 159, tert-butyl 4-(3-(4-(benzo[d]thiazol-2-ylamino)-3-fluorophenoxy)pyrazin-2-yl)-5,6-dihydropyridine-1(2H)-carboxylate] reads less than 25 nM; that for `COC(=O)N1CCC(c2nccnc2Oc2ccc(C(=O)c3nc4ccccc4[nH]3)cc2)CC1` [Example 227, methyl 4-(3-(4-(1H-benzo[d]imidazole-2-carbonyl)phenoxy)pyrazin-2-yl)piperidine-1-carboxylate], less than 25 nM.
In the case of `c1ccc2sc(Nc3ccc(Oc4nccnc4N4CCCC4)cc3)nc2c1` [Example 68, N-(4-(3-(pyrrolidin-1-yl)pyrazin-2-yloxy)phenyl)benzo[d]thiazol-2-amine], the IC50 fell in the range of 25 to 100 nM.
Same read-out and setting: the result for `N#Cc1ccc(-c2nccnc2Oc2ccc(Nc3nc4ccccc4s3)cc2)cn1` [Example 142, 5-(3-(4-(benzo[d]thiazol-2-ylamino)phenoxy)pyrazin-2-yl)picolinonitrile] reads less than 25 nM.
On the same count and under the same terms, to `CC(C)(O)C1CCN(c2nccnc2Oc2ccc(Nc3nc4ccccc4s3)cc2)CC1` [Example 66, 2-(1-(3-(4-(benzo[d]thiazol-2-ylamino)phenoxy)pyrazin-2-yl)piperidin-4-yl)propan-2-ol] belongs less than 25 nM; to `Fc1cccc2nc(Nc3ccc(Oc4cnccn4)cc3)sc12` [Example 217, 7-fluoro-N-(4-(pyrazin-2-yloxy)phenyl)benzo[d]thiazol-2-amine], 1000 to 5000 nM; to `CN1CCN(c2nccnc2Oc2ccc(Nc3nc4ccccc4s3)cc2)CC1` [Example 72, N-(4-(3-(4-methylpiperazin-1-yl)pyrazin-2-yloxy)phenyl)-benzo[d]thiazol-2-amine], 25 to 100 nM.
Same read-out and setting: the result for `OC1C=C(c2nccnc2Oc2ccc(Nc3nc4ccccc4s3)c(F)c2)CCC1` (racemic) [Example 137, (rac)-3-(3-(4-(benzo[d]thiazol-2-ylamino)-3-fluorophenoxy)pyrazin-2-yl)cyclohex-2-enol] reads less than 25 nM; that for `Cc1ncccc1-c1nccnc1Oc1ccc(C(=O)c2nc3ccccc3n2C)cc1` [Example 110, (1-methyl-1H-benzo[d]imidazol-2-yl)(4-(3-(2-methylpyridin-3-yl)pyrazin-2-yloxy)phenyl)methanone], 25 to 100 nM; that for `CN(c1ccc(Oc2nccnc2C2CCOCC2)cc1)c1nc2ccccc2s1` [Example 201, N-METHYL-N-(4-(3-(TETRAHYDRO-2H-PYRAN-4-YL)PYRAZIN-2-YLOXY)PHENYL)BENZO[D]THIAZOL-2-AMINE], less than 25 nM.
With `O=C(c1ccc(Oc2nccnc2C(=O)NCCO)cc1)c1nc2ccccc2[nH]1` [Example 258, 3-(4-(1H-benzo[d]imidazole-2-carbonyl)phenoxy)-N-(2-hydroxyethyl)pyrazine-2-carboxamide], the IC50 was 25 to 100 nM.
`Cc1ccc(-c2nccnc2Oc2ccc(Nc3nc4ccccc4s3)cc2)cn1` [Example 140, N-(4-(3-(6-methylpyridin-3-yl)pyrazin-2-yloxy)phenyl)benzo[d]thiazol-2-amine]: the half-maximal inhibitory concentration (IC50) is less than 25 nM.
`OC1CCN(c2nccnc2Oc2ccc(Nc3nc4ccccc4s3)cc2)CC1` [Example 67, 1-(3-(4-(benzo[d]thiazol-2-ylamino)phenoxy)pyrazin-2-yl)piperidin-4-ol]: the IC50 is less than 25 nM.

The experiment is the same for the next values; noted with them: PDE10 enzyme inhibition; average IC50 data for each compound; read-out: Average IC50.
On to `CC(C)(C)OC(=O)N1CC=C(c2nccnc2Oc2ccc(Nc3nc4ccccc4s3)c(F)c2)CC1` [drawing 983], for which the IC50 came to 70 nM.
On the same count and under the same terms, to `Fc1cc(Oc2cnccn2)ccc1Nc1nc2ccccc2s1` [drawing 878] belongs 777 nM; to `COC(=O)[C@@H]1CCN(c2nccnc2Oc2ccc(C(=O)c3nc4ccccc4[nH]3)cc2)C1` [drawing 838], 1.35 nM.
On the same count and under the same terms, to `CN(C)CC(=O)N1CCC(c2nccnc2Oc2ccc(Nc3nc4ccccc4s3)cc2)CC1` [drawing 996] belongs 0.705 nM; to `O=C(c1ccc(Oc2nccnc2C2CCCC2)cc1)c1nc2ccccc2[nH]1` [drawing 949], 1.76 nM.
As to `O=C(c1ccc(Oc2nccnc2OCC2CCOC2)cc1)c1nc2ccccc2[nH]1` (stereo not drawn) [drawing 854], the IC50 was 5.56 nM.
On the same count and under the same terms, to `CN1CCC(c2nccnc2Oc2ccc(Nc3nc4ccccc4s3)cc2)CC1` [drawing 966] belongs 5.92 nM; to `C[C@@H]1CN(c2nccnc2Oc2ccc(Nc3nc4ccccc4s3)cc2)CC(=O)N1` [drawing 834], 3.05 nM.
The same measure, in the same setting: the result for `COCC1CCN(c2nccnc2Oc2ccc(Nc3nc4ccccc4s3)cc2)CC1` [drawing 741] reads 39.5 nM; that for `CCOc1nccnc1Oc1ccc(C(=O)c2nc3ccccc3[nH]2)cc1`, 46 nM.
For the molecule `O=C(c1ccc(Oc2nccnc2[C@@H]2CCC[C@@H](O)C2)cc1)c1nc2ccccc2[nH]1`, the IC50 was found to be 0.992 nM.
Regarding `C[C@]1(O)CC[C@@H](c2nccnc2Oc2ccc(C(=O)c3nc4ccccc4[nH]3)cc2)CC1` [drawing 923], the IC50 worked out at 1.42 nM.
The same measure, in the same setting: the result for `O=C(c1ccc(Oc2nccnc2C2=CCCOC2)cc1)c1nc2ccccc2[nH]1` reads 16.1 nM; that for `c1ccc2sc(Nc3ccc(Oc4nccnc4-c4ccc(N5CCOCC5)cc4)cc3)nc2c1` [drawing 763], 1070 nM.
On the same count and under the same terms, the result for `N#C[C@H]1CCN(c2nccnc2Oc2ccc(Nc3nc4ccccc4s3)cc2)C1` (stereo in doubt) reads 3.3 nM; that for `c1ccc2sc(Nc3ccc(Oc4nccnc4-c4cccc5ncccc45)cc3)nc2c1` [drawing 821], 14.4 nM.
Still for that read-out and setting: the result for `C[C@@H](O)C(=O)N1CCC(c2nccnc2Oc2ccc(Nc3nc4ccccc4s3)cc2)CC1` (stereo in doubt) reads 0.0455 nM; that for `CC1(C)CCC(=O)[C@@H](c2nccnc2Oc2ccc(C(=O)c3nc4ccccc4[nH]3)cc2)C1`, 154 nM; that for `c1ccc2sc(Nc3ccc(Oc4nccnc4[C@H]4CCOC4)cc3)nc2c1` (stereo in doubt), 2.03 nM.
On to `c1ccc(Nc2ccc(Oc3nccnc3NCC3CCNCC3)cc2)nc1`, for which the IC50 worked out at 814 nM.
With `O=C(c1ccc(Oc2nccnc2C2CCOCC2)cc1)c1nc2ccccc2[nH]1` [drawing 752], the IC50 came out at 0.486 nM.

The same experiment, now with this note: PDE10 enzyme inhibition; chiral compounds separated from racemic mixtures; read-out: IC50.
Take `N#C[C@H]1CCN(c2nccnc2Oc2ccc(C(=O)c3nc4ccccc4[nH]3)cc2)C1` [Example 262, (S)-1-(3-(4-(1H-benzo[d]imidazole-2-carbonyl)phenoxy)pyrazin-2-yl)pyrrolidine-3-carbonitrile]: the IC50 was less than 25 nM.
The same measure, in the same setting: to `C[C@H](F)C(=O)N1CCC(c2nccnc2Oc2ccc(Nc3nc4ccccc4s3)cc2)CC1` [Example 280, (S)-1-(4-(3-(4-(benzo[d]thiazol-2-ylamino)phenoxy)pyrazin-2-yl)piperidin-1-yl)-2-fluoropropan-1-one] belongs less than 25 nM; to `CCOC(=O)[C@H]1CCCN(c2nccnc2Oc2ccc(C(=O)c3nc4ccccc4[nH]3)cc2)C1` [Example 264, (S)-ethyl 1-(3-(4-(1H-benzo[d]imidazole-2-carbonyl)phenoxy)pyrazin-2-yl)piperidine-3-carboxylate], less than 25 nM.
Still for that read-out and setting: the result for `O=C1CCC[C@H](c2nccnc2Oc2ccc(Nc3nc4ccccc4s3)cc2)C1` [Example 282, (S)-3-(3-(4-(benzo[d]thiazol-2-ylamino)phenoxy)pyrazin-2-yl)cyclohexanone] reads less than 25 nM.

The values are drawn from patent US20120277209A1, “PYRAZINE COMPOUNDS AS PHOSPHODIESTERASE 10 INHIBITORS” (Amgen Inc., priority 2009, published 2012).
